Read-outs that look alike come from different tables or passages of the source.
Molecular target: T1, sterol 14-reductase (Rattus norvegicus, UniProt A0ACM8Q6X4)
T1 construct: microsome which was used as an enzyme source of sterol 14-reductase; from tissue; host or cells: liver microsomes of male Sprague-Dawley rats fed lovastatin and cholestyramine
T1 sequence (A0ACM8Q6X4 1-418): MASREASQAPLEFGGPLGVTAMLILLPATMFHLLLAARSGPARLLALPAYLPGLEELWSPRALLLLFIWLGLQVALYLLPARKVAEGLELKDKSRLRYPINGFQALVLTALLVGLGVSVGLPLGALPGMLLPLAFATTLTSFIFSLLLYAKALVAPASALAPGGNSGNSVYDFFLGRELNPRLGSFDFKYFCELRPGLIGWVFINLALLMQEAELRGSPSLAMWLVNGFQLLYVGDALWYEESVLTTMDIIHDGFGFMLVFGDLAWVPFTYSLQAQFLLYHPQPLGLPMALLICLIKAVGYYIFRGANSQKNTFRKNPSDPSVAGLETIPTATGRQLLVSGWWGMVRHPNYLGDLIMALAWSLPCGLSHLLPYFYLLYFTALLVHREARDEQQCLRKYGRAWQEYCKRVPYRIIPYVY
Test: Inhibition of sterol 14-reductase in rat liver microsomes
Assay type: biochemical

[1] = read-out: Enzyme Activity (relative in vitro activity for sterol 14-reductase, IC50 class)

Protocol: 20 Male Sprague-Dawley rats weighing from 150 to 250 g have been fed for 7 days with a diet containing 0.1% (w/w) Lovastatin and 5% (w/w) Cholestyramine. The animals were fasted for 12 hours before excising liver tissues and then sacrificed by decapitation at midnight. An aqueous solution containing 0.25M of sucrose was injected into the hepatic portal vein to remove all the blood within the liver, and then, the liver was excised. The liver was homogenated with two volumes of buffer solution A (0.1M potassium phosphate, 1 mM reduced glutathione, 0.5 mM EDTA, 20% (v/v) glycerol, pH 7.4) by repeating pestles over 10 times and then, centrifuged with 900×g for 5 minutes to give a supernatant. The supernatant was centrifuged with 12,000×g for 20 minutes. The supernatant obtained was ultracentrifuged with 105,000×g for 90 minutes to give a microsome which was used as an enzyme source of sterol 14-reductase. Assay for sterol 14-reductase was carried out as follows:
60 mmol of 4,4-dimethyl-5α-cholesta-7,14-dien-3β-ol and 5,6-dihydrodibenzo-[a,g]quinolizinium salts (compound no. 2) dissolved in DMSO were added to an assay mixture (total volume 1.0 ml) containing 2 mg of the microsomal protein, 2 mM of NADPH and 25 mg of glucose plus 20 units of glucose oxidase with preincubations under nitrogen at 37° C. for 4 min. unless otherwise specified to establish anaerobic condition. Buffer A (0.1M potassium phosphate buffer, pH 7.4, including 1 mM reduced glutathione, 0.5 mM EDTA, and 20% (v/v) glycerol) used for incubation had been equilibrated with nitrogen, and nitrogen was exchanged for air in all sealed reaction flasks prior to the start of incubations. Incubation of the complete mixture was carried out anaerobically in sealed flasks for 10 min at 37° C. unless otherwise indicated. Incubations were terminated by the addition of 1 ml of ethanolic KOH followed by heating under reflux for 10 min. Sterols were extracted four times with 4 ml of petroleum ether, and the solvent was evaporated to dryness under a nitrogen stream. The resulting residue was dissolved in 200-500 μl of n-hexane for quantification by GLC at high sensitive attenuation. The activity of sterol 14-reductase was determined with the amount of the substrate wherein the double bonds of 14-carbon were reduced (for the amount reduced by 1 mg of the microsome protein for 1 minute).

IC50 [1] [µM]	SMILES	further results
10 to 100	CCc1c2[n+](cc3c(OCc4cccc(Br)c4)c(OC)ccc13)CCc1cc(OC)c(OC)cc1-2 [Compound No. 34, 5,6-dihydro-2,3-dimethoxybenzo[a]-9-(3-bromo)-benzyloxy-13-ethyl-10-methoxybenzo[g]quinolizinium chloride]	–
> 100	CCc1c2[n+](cc3c(OCc4cc(OC)cc(OC)c4)c(OC)ccc13)CCc1cc(OC)c(OC)cc1-2 [Compound No. 35, 5,6-dihydro-2,3-dimethoxybenzo[a]-9-(3,5-dimethoxy)benzyloxy-13-ethyl-10-methoxybenzo[g]quinolizinium chloride]	–
10 to 100	CCc1c2[n+](cc3c(OCc4ccc5ccccc5n4)c(OC)ccc13)CCc1cc(OC)c(OC)cc1-2 [Compound No. 36, 5,6-dihydro-2,3-dimethoxybenzo[a]-13-ethyl-10-methoxy-9-(quinolin-2-yl)methoxybenzo[g]quinolizinium chloride]	–
> 100	CCc1c2[n+](cc3c(OCc4cc(OC)c(OC)c(OC)c4)c(OC)ccc13)CCc1cc(OC)c(OC)cc1-2 [Compound No. 37, 5,6-dihydro-2,3-dimethoxybenzo[a]-13-ethyl-10-methoxy-9-(3,4,5-trimethoxy)benzyloxybenzo[g]quinolizinium chloride]	–
10 to 100	CCc1c2[n+](cc3c(OCc4ccc(CS(=O)(=O)c5ccccc5)cc4)c(OC)ccc13)CCc1cc(OC)c(OC)cc1-2 [Compound No. 38, 5,6-dihydro-2,3-dimethoxybenzo[a]-13-ethyl-10-methoxy-9-[4-(phenylsulfonylmethyl)benzyloxy]benzo[g]-quinolizinium chloride]	–
10 to 100	CCc1c2[n+](cc3c(OCc4ccc([N+](=O)[O-])o4)c(OC)ccc13)CCc1cc(OC)c(OC)cc1-2 [Compound No. 39, 5,6-dihydro-2,3-dimethoxybenzo[a]-13-ethyl-10-methoxy-9-(5-nitrofuran-2-yl)methoxybenzo[g]quinolizinium chloride]	–
> 100	CCc1c2[n+](cc3c(OCc4cc5c(cc4Cl)OCO5)c(OC)ccc13)CCc1cc(OC)c(OC)cc1-2 [Compound No. 40, 5,6-dihydro-2,3-dimethoxybenzo[a]-9-(6-chloro)-piperonyloxy-13-ethyl-10-methoxybenzo[g]quinolizinium chloride]	–
> 100	C=C(C)COc1c(OC)ccc2c(CC)c3[n+](cc12)CCc1cc(OC)c(OC)cc1-3 [Compound No. 41, 5,6-dihydro-2,3-dimethoxybenzo[a]-13-ethyl-10-methoxy-9-(2-methyl)propenoxybenzo[g]quinolizinium chloride]	–
10 to 100	CCc1c2[n+](cc3c(OCc4ccc(OC(F)(F)F)cc4)c(OC)ccc13)CCc1cc(OC)c(OC)cc1-2 [Compound No. 42, 5,6-dihydro-2,3-dimethoxybenzo[a]-13-ethyl-10-methoxy-9-(4-trifluoromethoxy)benzyloxybenzo[g]quinolizinium chloride]	–
10 to 100	CCc1c2[n+](cc3c(OCc4ccccc4I)c(OC)ccc13)CCc1cc(OC)c(OC)cc1-2 [Compound No. 43, 5,6-dihydro-2,3-dimethoxybenzo[a]-13-ethyl-9-(2-iodo)benzyloxy-10-methoxybenzo[g]quinolizinium chloride]	–
–	C=C(COc1c(OC)ccc2c(CC)c3[n+](cc12)CCc1cc(OC)c(OC)cc1-3)C[Si](C)(C)C [Compound No. 44, 5,6-dihydro-2,3-dimethoxybenzo[a]-13-ethyl-10-methoxy-9-[(3-trimethylsilyl)propen-2-yl]oxybenzo[g]quinolizinium chloride]	IC50 (Enzyme Activity (relative in vitro activity for sterol 14-reductase, IC50 class)): > 100 µM
10 to 100	CCCCCCCCCCCCOc1c(OC)ccc2c(CC)c3[n+](cc12)CCc1cc2c(cc1-3)OCO2 [Compound No. 45, 5,6-dihydro-2,3-methylenedioxybenzo[a]-9-dodecoxy-13-ethyl-10-methoxybenzo[g]quinolizinium iodide]	–
< 1	CCc1c2[n+](cc3c(OCc4ccc(C(C)(C)C)cc4)c(OC)ccc13)CCc1cc3c(cc1-2)OCO3 [Compound No. 46, 5,6-dihydro-2,3-methylenedioxybenzo[a]-9-[(4-tert-butyl)benzyloxy]-13-ethyl-10-methoxybenzo[g]quinolizinium iodide]	–
< 1	CCc1c2[n+](cc3c(OCc4c(F)c(F)c(F)c(F)c4F)c(OC)ccc13)CCc1cc3c(cc1-2)OCO3 [Compound No. 47, 5,6-dihydro-2,3-methylenedioxybenzo[a]-13-ethyl-10-methoxy-9-(2,3,4,5,6-pentafluoro)benzyloxybenzo[g]-quinolizinium iodide]	–
< 1	CCc1c2[n+](cc3c(OCc4cc(OC)c(OC)cc4[N+](=O)[O-])c(OC)ccc13)CCc1cc3c(cc1-2)OCO3 [Compound No. 48, 5,6-dihydro-2,3-methylenedioxybenzo[a]-9-(4,5-dimethoxy-2-nitro)benzyloxy-13-ethyl-10-methoxybenzo[g]-quinolizinium iodide]	–
–	CCc1c2[n+](cc3c(OCc4ccc(C)c([N+](=O)[O-])c4)c(OC)ccc13)CCc1cc3c(cc1-2)OCO3 [Compound No. 49, 5,6-dihydro-2,3-methylenedioxybenzo[a]-13-ethyl-10-methoxy-9-(4-methyl-3-nitro)benzyloxybenzo[g]quinolizinium iodide]	IC50 (microsomes, read-out: Enzyme Activity (relative in vitro activity for sterol 14-reductase, IC50 class)): 10 to 100 µM
10 to 100	CCc1c2[n+](cc3c(OCc4ccc(C(F)(F)F)cc4)c(OC)ccc13)CCc1cc3c(cc1-2)OCO3 [Compound No. 50, 5,6-dihydro-2,3-methylenedioxybenzo[a]-13-ethyl-10-methoxy-9-(4-trifluoromethyl)benzyloxybenzo[g]quinolizinium iodide]	–
10 to 100	CCc1c2[n+](cc3c(OCc4cccc(C(F)(F)F)c4)c(OC)ccc13)CCc1cc3c(cc1-2)OCO3 [Compound No. 51, 5,6-dihydro-2,3-methylenedioxybenzo[a]-13-ethyl-10-methoxy-9-(3-trifluoromethyl)benzyloxybenzo[g]quinolizinium iodide]	–
10 to 100	CCc1c2[n+](cc3c(OCc4c(F)c(F)c(C(F)(F)F)c(F)c4F)c(OC)ccc13)CCc1cc3c(cc1-2)OCO3 [Compound No. 52, 5,6-dihydro-2,3-methylenedioxybenzo[a]-13-ethyl-10-methoxy-9-(2,3,5,6-tetrafluoro-4-trifluoromethyl)benzyloxybenzo[g]quinolizinium iodide]	–
10 to 100	CCc1c2[n+](cc3c(OCc4ccc(-c5ccccc5)cc4)c(OC)ccc13)CCc1cc3c(cc1-2)OCO3 [Compound No. 53, 5,6-dihydro-2,3-methylenedioxybenzo[a]-13-ethyl-10-methoxy-9-(4-phenyl)benzloxybenzo[g]quinolizinium iodide]	–
10 to 100	CCc1c2[n+](cc3c(OCc4ccc(Cl)nc4)c(OC)ccc13)CCc1cc3c(cc1-2)OCO3 [Compound No. 54, 5,6-dihydro-2,3-methylenedioxybenzo[a]-9-(6-chloropyridinyl-3-yl)methoxy-13-ethyl-10-methoxybenzo[g]quinolizinium iodide]	–
< 1	CCOc1cc2c(cc1OCC)-c1c(CC)c3ccc(OC)c(OCc4ccc(C(C)(C)C)cc4)c3c[n+]1CC2 [Compound No. 55, 5,6-dihydro-2,3-diethoxybenzo[a]-9-[4-(tert-butyl)benzyloxy]-13-ethyl-10-methoxybenzo[g]quinolizinium chloride]	–
< 1	CCOc1cc2c(cc1OCC)-c1c(CC)c3ccc(OC)c(OCc4c(F)c(F)c(F)c(F)c4F)c3c[n+]1CC2 [Compound No. 56, 5,6-dihydro-2,3-diethoxybenzo[a]-13-ethyl-10-methoxy-9-(2,3,4,5,6-pentafluoro)benzyloxybenzo[g]quinolizinium chloride]	–
< 1	CCOc1cc2c(cc1OCC)-c1c(CC)c3ccc(OC)c(OCc4c(F)c(F)c(C(F)(F)F)c(F)c4F)c3c[n+]1CC2 [Compound No. 57, 5,6-dihydro-2,3-diethoxybenzo[a]-9-(2,3,5,6-tetrafluoro-4-trifluoromethyl)benzyloxy-13-ethyl-10-methoxy-benzo[g]-quinolizinium chloride]	–
10 to 100	CCOc1cc2c(cc1OCC)-c1c(CC)c3ccc(OC)c(OCc4ccc(Cl)nc4)c3c[n+]1CC2 [Compound No. 58, 5,6-dihydro-2,3-diethoxybenzo[a]-9-(6-chloropyridinyl-3-yl)methoxy-13-ethyl-10-methoxybenzo [g]-quinolizinium chloride]	–
10 to 100	CCc1c2[n+](cc3c(OCc4c(F)c(F)c(F)c(F)c4F)c(OC)ccc13)CCc1cc(O)c(O)cc1-2 [Compound No. 59, 5,6-dihydro-2,3-dihydroxybenzo[a]-13-ethyl-10-methoxy-9-(2,3,4,5,6-pentafluoro)benzyloxybenzo[g]quinolizinium chloride]	–
< 1	CCc1c2[n+](cc3c(OCc4c(F)c(F)c(C(F)(F)F)c(F)c4F)c(OC)ccc13)CCc1cc(O)c(O)cc1-2 [Compound No. 60, 5,6-dihydro-2,3-dihydroxybenzo[a]-13-ethyl-10-methoxy-9-(2,3,5,6-tetrafluoro-4-trifluoromethyl)benzyloxybenzo[g]quinolizinium chloride]	–
< 1	CCCCCCCCCCCCOc1c(OCC)ccc2c(CC)c3[n+](cc12)CCc1cc(OCC)c(OCC)cc1-3 [Compound No. 61, 5,6-dihydro-2,3-diethoxybenzo[a]-9-dodecoxy-10-ethoxy-13-ethylbenzo[g]quinolizinium chloride]	–
